Assay results from ChEMBL document CHEMBL1772933, “Didemnidines A and B, indole spermidine alkaloids from the New Zealand ascidian Didemnum sp” (J Nat Prod, 2011).
Calls of active or inactive are those of the source. The calls are words filed in the database; no cut-off is given here.

Legend:
Neutrophil = experiment: Inhibition of PMA-stimulated superoxide production in human neutrophils assessed as respiratory burst; format: functional, cell-based
Leishmania donovani = experiment: Antiprotozoal activity against Leishmania donovani MHOM/ET/67/L82 after 72 hrs by fluorimetry; format: functional, organism-based; conditions: MHOM/ET/67/L82, 72 h
Plasmodium falciparum = experiment: Antimalarial activity against chloroquine- and pyrimethamine-resistant Plasmodium falciparum K1 assessed as [3H]-hypoxanthine incorporation after 48 hrs by liquid scintillation counting; format: functional, organism-based
Saccharomyces cerevisiae = experiment: Inhibition of yeast FTase in presence of farnesyl pyrophosphate
Trypanosoma cruzi = experiment: Antiparasitic activity against intracellular amastigotes of Trypanosoma cruzi Tulahuen C2C4 expressing LacZ gene infected in rat L6 cells after 96 hrs by photometrically; format: functional, organism-based; conditions: Tulahuen C2C4, L6, 96 h
[1] = target: T1, Phospholipase A2 (Apis mellifera) (UniProt P00630); experiment: Inhibition of Apis mellifera venom PLA2 by colorimetric bioassay
T1 sequence (whole entry): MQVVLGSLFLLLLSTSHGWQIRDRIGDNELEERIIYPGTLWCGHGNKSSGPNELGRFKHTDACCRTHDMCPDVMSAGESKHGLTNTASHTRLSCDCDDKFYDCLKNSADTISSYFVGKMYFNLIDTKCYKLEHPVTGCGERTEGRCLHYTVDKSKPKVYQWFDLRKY

L6 = experiment: Cytotoxicity against rat L6 cells after 72 hrs by alamar blue assay; format: cell-based; conditions: L6, 72 h
[2] = test system: Trypanosoma brucei rhodesiense; experiment: Antiparasitic activity against bloodstream form of Trypanosoma brucei rhodesiense STIB 900 after 72 hrs by microplate reader assay; format: functional, organism-based; conditions: STIB 900, 72 h

Structure (SMILES)	inhibition (Neutrophil)	IC50 (Leishmania donovani)	IC50 (Plasmodium falciparum)	inhibition (Saccharomyces cerevisiae)	IC50 (Trypanosoma cruzi)	inhibition [1]	IC50 (L6)	IC50 [2]
O=C1NC(=O)C(c2c[nH]c3ccccc23)=C1c1cnc[nH]1	inactive	–	–	–	–	–	–	–
Cn1cncc1C1=C(c2c[nH]c3ccccc23)C(=O)NC1=O	inactive	–	–	–	–	–	–	–
CCCCCCCCCCCCCCCCOP(=O)([O-])OCC[N+](C)(C)C [MILTEFOSINE]	–	0.52 µM	–	–	–	–	–	–
NCCCCNCCCNC(=O)C(=O)c1c[nH]c2cc(Br)ccc12 [DIDEMNIDINE B]	inactive	> 160 µM	15 µM	inactive	82 µM	inactive	25 µM	44 µM
O=C1NC(=O)C(c2c[nH]c3cc(Br)ccc23)=C1c1cnc[nH]1	inactive	–	–	–	–	–	–	–
O=C(Cn1ccnc1[N+](=O)[O-])NCc1ccccc1 [BENZNIDAZOLE]	–	–	–	–	1.35 µM	–	–	–
CC(C)(C)OC(=O)NCCCCNCCCNC(=O)C(=O)c1c[nH]c2cc(Br)ccc12	inactive	> 160 µM	8.4 µM	inactive	28 µM	inactive	25 µM	9.9 µM
Cn1cncc1C1=C(c2c[nH]c3cc(Br)ccc23)C(=O)NC1=O	inactive	–	–	–	–	–	–	–
CC(C)(C)OC(=O)NCCCCNCCCNC(=O)C(=O)c1c[nH]c2ccccc12	inactive	> 190 µM	32 µM	inactive	88 µM	inactive	73 µM	34 µM
NCCCCNCCCNC(=O)C(=O)c1c[nH]c2ccccc12 [DIDEMNIDINE A]	inactive	> 180 µM	41 µM	inactive	130 µM	inactive	24 µM	59 µM
COc1cc([C@@H]2c3cc4c(cc3[C@H](O)[C@H]3COC(=O)[C@H]23)OCO4)cc(OC)c1OC [PODOFILOX]	–	–	–	–	–	–	0.01 µM	–
